Experimental data taken from ChEMBL document CHEMBL1221220, “Transport and signaling via the amino acid binding site of the yeast Gap1 amino acid transceptor” (Nat Chem Biol, 2009).
Changes are numbered by the printed parent chain. Activity calls are given as the source filed them. The calls are words filed in the database; no cut-off is given here.

Key:
[1] = tested on: T1, General amino-acid permease GAP1 (Saccharomyces cerevisiae), P19145 [L383C]; assay: Induction of yeast Gap1 L383C mutant-mediated trehalose activation at 2 mM in presence of 10 mM MTSEA treated before compound addition
T1 sequence (whole entry): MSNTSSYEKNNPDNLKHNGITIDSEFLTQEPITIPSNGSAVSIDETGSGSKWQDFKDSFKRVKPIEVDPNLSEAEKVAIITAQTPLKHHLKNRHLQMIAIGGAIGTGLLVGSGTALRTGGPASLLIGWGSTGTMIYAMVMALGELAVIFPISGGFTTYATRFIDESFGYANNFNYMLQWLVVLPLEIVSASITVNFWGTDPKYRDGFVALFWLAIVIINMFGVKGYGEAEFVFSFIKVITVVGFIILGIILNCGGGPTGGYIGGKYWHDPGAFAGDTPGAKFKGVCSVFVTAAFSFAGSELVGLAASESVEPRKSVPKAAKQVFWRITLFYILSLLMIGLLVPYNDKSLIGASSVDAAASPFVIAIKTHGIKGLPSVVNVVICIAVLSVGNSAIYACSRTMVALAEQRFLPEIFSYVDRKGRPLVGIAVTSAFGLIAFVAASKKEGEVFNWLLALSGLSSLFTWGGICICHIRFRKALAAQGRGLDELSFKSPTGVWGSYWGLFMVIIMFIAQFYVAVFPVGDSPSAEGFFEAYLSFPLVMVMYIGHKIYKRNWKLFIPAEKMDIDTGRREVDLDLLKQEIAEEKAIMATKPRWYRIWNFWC

[2] = tested on: T2, General amino-acid permease GAP1 (Saccharomyces cerevisiae), P19145 [N391C]; assay: Induction of yeast Gap1 N391C mutant-mediated trehalose activation at 2 mM in presence of 10 mM MTSEA treated before compound addition
T2 sequence (whole entry): T1 sequence (whole entry) with C383L, N391C

[3] = tested on: T3, General amino-acid permease GAP1 (Saccharomyces cerevisiae), P19145 [T400C]; assay: Induction of yeast Gap1 T400C mutant-mediated amino acid uptake at 2 mM in presence of 10 mM MTSEA treated before compound addition
T3 sequence (whole entry): T1 sequence (whole entry) with C383L, T400C

[4] = tested on: General amino-acid permease GAP1 (Saccharomyces cerevisiae), P19145 [S388C]; assay: Induction of yeast Gap1 S388C mutant-mediated amino acid uptake at 2 mM in presence of 10 mM MTSEA treated before compound addition
[5] = tested on: T4, General amino-acid permease GAP1 (Saccharomyces cerevisiae), P19145 [A393C]; assay: Induction of yeast Gap1 A393C mutant-mediated trehalose activation at 10 mM
T4 sequence (whole entry): T1 sequence (whole entry) with C383L, A393C

Chain of General amino-acid permease GAP1 (Saccharomyces cerevisiae), P19145 [S388C] (P19145 whole entry S388C): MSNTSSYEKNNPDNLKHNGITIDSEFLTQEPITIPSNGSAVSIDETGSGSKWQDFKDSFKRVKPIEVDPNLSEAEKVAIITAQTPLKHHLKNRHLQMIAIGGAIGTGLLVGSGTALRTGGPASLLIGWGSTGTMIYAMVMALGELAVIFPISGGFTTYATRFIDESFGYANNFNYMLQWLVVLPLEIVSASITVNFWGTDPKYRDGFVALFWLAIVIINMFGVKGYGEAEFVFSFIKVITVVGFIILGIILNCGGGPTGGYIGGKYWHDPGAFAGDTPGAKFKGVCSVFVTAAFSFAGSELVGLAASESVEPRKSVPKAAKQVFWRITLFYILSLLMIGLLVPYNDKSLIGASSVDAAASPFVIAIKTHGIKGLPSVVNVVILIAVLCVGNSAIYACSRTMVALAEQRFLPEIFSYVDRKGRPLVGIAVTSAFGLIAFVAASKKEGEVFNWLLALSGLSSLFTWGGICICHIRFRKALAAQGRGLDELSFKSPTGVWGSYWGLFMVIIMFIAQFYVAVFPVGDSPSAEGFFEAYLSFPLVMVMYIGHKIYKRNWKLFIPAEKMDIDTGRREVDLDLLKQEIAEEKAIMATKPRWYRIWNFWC

NC(=O)NCCC[C@H](N)C(=O)O
inhibition [1]: Active
inhibition [2]: Active
Activity [3]: Active
inhibition [4]: inactive
Activity [5]: inactive
